Where “and” joins values, the source holds several entries; their conditions need not be identical. Identical values can stand only once. Like-named read-outs stand apart in the source and are kept apart here. Marks after values point to notes of the source that are not given here.
What was measured:
ternary complex [1] = biological target: T1, ternary complex (Escherichia coli, UniProt P0CE48); experiment: Equilibrium titration of nucleotide into Cy3-labeled Phe-tRNAPhe with saturating EF-Tu; assay type: binding, E. coli; conditions: for RF Increase (%): Cy3 relative fluorescence increase at saturation, nucleotide titrated
T1 construct: 6-His tag followed by TEV protease site (N); made in house; host or cells: E. coli (bacterial expression vector pPROEX-Ht-b)
Description: Initial experiments focused on the molecular determinants of ternary complex formation in vitro using E. coli EF-Tu and tRNA^Phe. […] Depending on the solution conditions of the experiment, the formation of ternary complex can be detected as either a rise or fall in fluorescence intensity depending strongly on the solution conditions of the Cy3 fluorophore linked to tRNA^Phe. Other tRNA species (e.g., Cy3-labeled tRNA^Lys) undergo similar changes in fluorescence intensity.
Fluorescence experiments were performed using a Photon Technology International fluorescence meter with a 550 nm high pass filter on the emission side. All samples were analyzed in a 3 mL quartz cuvette, with a stir bar, maintained at 23° C. […] Fluorescence intensity was measured by exciting Cy3 labeled tRNA^Phe with 532 nm light and recording emission intensities at 565 nm. The sample was allowed to mix for 1 minute after each subsequent addition of reagent before data acquisition.
[formula] (Abrahamson 1985). Values of Kd were obtained by performing a nonlinear least squares fit of the data from fluorescence experiments to equation 5 in Matlab (R2011a). The best-fit values are reported with asymptotic 95% confidence intervals.
To assess the affinity and nature of GTP's interactions with ternary complex, analogous titration experiments were carried out in which GTP was added to a solution of 5 nM Phe-tRNA^Phe (Cy3-acp3U47) in the presence of saturating concentrations of EF-Tu (40 times IQ). […] The non-hydrolysable analogs each saturated at a relative fluorescence value well below 30%, illustrating EF-Tu's sensitivity to the position of the gamma phosphate.

ternary complex [2] = biological target: T1, ternary complex; experiment: Functional drug assay: dissociation of pre-formed fluorescent ternary complex; assay type: biochemical, E. coli; conditions: for kapp,2 apparent rate of ternary complex dissociation: compound added to pre-formed ternary complex (400 nM EF-Tu/EF-Ts, 5 nM Cy3 Phe-tRNAPhe, 10 μM GTP), GDP 100 μM
Procedure: After ternary complex was formed, drug was added to a final concentration of 1 μM. Decay curves were fit using non-linear least squares method as previously mentioned.
To test this hypothesis, ternary complex was formed at low, saturating concentrations of GTP (10 μM). […] To the formed complex, 100 μM GDP was then added and the rate of ternary complex dissociation was followed as a function of time.
To illustrate the dynamic equilibrium that exists between ternary complex and its constituents, EF-Tu-targeting drugs were delivered to pre-formed ternary complex in the same manner as GDP described above.

Phe-tRNA^Phe [3] = test system: Phe-tRNA^Phe
Phe-tRNA^Phe [4] = conditions: for RF Increase (%): Cy3 relative fluorescence increase on ternary complex formation, EF-Tu titrated
Phe-tRNA^Phe [5] = conditions: 4° C., pH 7.4; cited from earlier work
EF-Tu = EF-Tu (Escherichia coli, UniProt P0CE47); conditions: cited from earlier work
[6] = 5 nM Phe-tRNAPhe (Cy3-acp3U47), saturating EF-Tu (400 nM EF-Tu/EF-Ts), read-out: Kd (apparent affinity of nucleotide for ternary complex)

In the case of Nc1nc2c(ncn2[C@@H]2O[C@H](COP(=O)(O)OP(=O)(O)OP(=O)(O)O)[C@@H](O)[C@H]2O)c(=O)[nH]1 [GTP, guanosine nucleotide triphosphate], the Kd (ternary complex [1]; [6]) is reported as 696 nM, the “RF Increase (%)” value (ternary complex [1]) is reported as 30% and the Kd (ternary complex [1]; Example 2, saturating EF-Tu (~300 nM), read-out: affinity of GTP in the formation of ternary complex) is reported as about 200 nM. The “kon of GTP for the complex (kon=koff/KD)” value (ternary complex [1]; model, from koff 0.3 s^−1 and KD) was about 1e+06 M⁻¹ s⁻¹.
For C=C(NC(=O)C(=C)NC(=O)c1csc(C2=N[C@@H]3c4csc(n4)[C@H]4NC(=O)c5csc(n5)[C@H]([C@](C)(O)[C@@H](C)O)NC(=O)[C@H]5CSC(=N5)/C(=C/C)NC(=O)[C@H]([C@@H](C)O)NC(=O)c5csc(n5)[C@]3(CC2)NC(=O)[C@H](C)NC(=O)C(=C)NC(=O)[C@H](C)NC(=O)[C@H]([C@@H](C)CC)N[C@@H]2C=Cc3c([C@H](C)O)cc(nc3[C@H]2O)C(=O)O[C@@H]4C)n1)C(N)=O [Thiostrepton], the “kapp,2 apparent rate of ternary complex dissociation” value (ternary complex [2]) was 0 s⁻¹ and the “disruption of the ternary complex” value (ternary complex [2]; thiostrepton added to pre-formed ternary complex (10 μM per FIG. 17)) was “did not lead to disruption of the ternary complex”.
For “EF-Tu (GTP): elongation factor Tu from E. coli, GTP-bound form, added as EF-Tu/EF-Ts complex”, the association constant kon (Phe-tRNA^Phe [3]; EF-Tu and GTP (10 μM) added to 5 nM Cy3-labeled Phe-tRNAPhe) was 1.4e+06 M⁻¹ s⁻¹, the dissociation rate koff (Phe-tRNA^Phe [3]; fit of triplicate time course to equation 7) was 0.08 s⁻¹ and the “RF Increase (%)” value (Phe-tRNA^Phe [4]) was 30%. For the same compound, the “RF Increase (%)” value (Phe-tRNA^Phe [4]; listed as EF-Tu) was “approximately 30%”, the Kd (Phe-tRNA^Phe [4]; read-out: Kd (apparent dissociation constant between EF-Tu•GTP and Phe-tRNAPhe), 5 nM Phe-tRNAPhe (Cy3-acp3U47), 10 μM GTP, 23° C., ± 95% CI) was 12.7 ± 1.1 nM and the Kd (Phe-tRNA^Phe [4]; read-out: Kd (apparent dissociation constant between EF-Tu•GTP and Phe-tRNAPhe), 5 nM Phe-tRNAPhe (Cy3-acp3U47), 10 μM GTP, 23° C., ± 95% CI, listed as EF-Tu•GTP) was 12.6 nM. The Kd (Phe-tRNA^Phe [4]; read-out: Kd of EF-Tu's interaction with Phe-tRNAPhe, Example 2, saturating GTP (>10 μM)) was at most 15 nM and the “rate of association determined previously” value (Phe-tRNA^Phe [5]) was 1.5e+06 M⁻¹ s⁻¹.
In the case of Nc1nc2c(ncn2[C@@H]2O[C@H](COP(=O)(O)OP(=O)(O)OP(O)(O)=S)[C@@H](O)[C@H]2O)c(=O)[nH]1 [GDPγS, guanosine 5′[γ-thio]triphosphate], the Kd (ternary complex [1]) is reported as 3670 nM and the “RF Increase (%)” value (ternary complex [1]) is reported as 5.5%.
With Kirromycin the “reduction of relative fluorescence” value (ternary complex [2]; 1 μM added to pre-formed ternary complex) was about 20%, the “kapp,2 rate of GDP mediated dissociation in the presence of kirromycin” value (ternary complex [2]; 1 μM kirromycin, then GDP) was 0.02* s^−1 and the “dissociation of ternary complex by saturating GDP with kirromycin present” value (ternary complex [2]; 1 μM kirromycin, then saturating GDP) was “did not dissociate ternary complex in the time frame observed”.
For Nc1nc2c(ncn2[C@@H]2O[C@H](COP(=O)(O)OP(=O)(O)O)[C@@H](O)[C@H]2O)c(=O)[nH]1 [GDP], the “affinity for GDP relative to GTP” value (EF-Tu; EF-Tu) is listed as 40 fold, the “dissociation rate of GDP from EF-Tu•GDP•EF-Ts” value (EF-Tu; Gromadski 2002) is listed as 125 s⁻¹ and the “kapp,2 apparent rate of ternary complex dissociation” value (ternary complex [2]) is listed as 0.3 s⁻¹ and 0.30 s⁻¹.
With Nc1nc2c(ncn2[C@@H]2O[C@H](COP(=O)(O)OP(=O)(O)NP(=O)(O)O)[C@@H](O)[C@H]2O)c(=O)[nH]1 [GDPNP, guanylyl-imino-diphosphate] the Kd (ternary complex [1]; [6]) was 9270 nM and the “RF Increase (%)” value (ternary complex [1]) was 7.3%.

— patent US9625466B2, “Signal amplification methods for the imaging of protein synthesis and neurotransmitter transport” (CORNELL UNIVERSITY, priority 2011, dated 2017)
